Where “and” joins values, the source holds several entries; their conditions need not be identical. Equal entries are not always repeated. Where two headings read alike, the source gives them in different places.
How the values were obtained:
MDM2 = molecular target: T1, MDM2 (Homo sapiens, UniProt Q00987); experiment: Inhibition test of MDM2-P53 (GST-MDM2, Biotin-P53, Anti-GST-Tb, SA-XL665); assay type: binding
T1 construct: made in house
Procedure, shortened: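 Compounds, serially diluted 5-fold (twelve concentrations), were shaken for 90 min at 25° C with a mix of GST-MDM2 (4 nM final), Biotin-P53, anti-GST-Tb and SA-XL665. Buffer: 1×PBS, 0.1% BSA, 5 mM DTT, 1 mM AEBSF; signal read on a microplate reader.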

[1] = Pharmacokinetics in ICR mice after intravenous and intragastric administration; assay type: in vivo; settings: for MRT last: read-out: MRT(0-t); for MRT inf: read-out: MRT(0-∞); for Vd: read-out: Vz
Procedure, shortened: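 Male ICR mice aged 6-9 weeks are dosed after an overnight fast, intravenously at 2 mg/kg and orally by gavage at 5 mg/kg. Plasma drug is measured by LC-MS/MS over a 1-2000 ng/ml range.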

[2] = tested on: human osteosarcoma cell line SJSA-1; experiment: Inhibition of proliferation of human osteosarcoma cell line SJSA-1 (DAPI staining, In Cell Analyzer); settings: Homo sapiens, SJSA-1, 72 h, read-out: IC50 (nM), inhibitory activity on proliferation of human osteosarcoma cell line SJSA-1, SJSA-1, incubated 72 h
[3] = ICR mice, IV 2 mg/kg, individual animal, 2 mg/kg
[4] = ICR mice, PO 5 mg/kg, individual animal, 5 mg/kg
[5] = male, ICR, mouse, plasma, iv, 2 mg/kg, ICR mice, IV 2 mg/kg, individual animal
[6] = male, ICR, mouse, plasma, iv, 2 mg/kg, ICR mice, IV 2 mg/kg, individual animal, read-out: Cmax
[7] = male, ICR, mouse, plasma, iv, 2 mg/kg, ICR mice, IV 2 mg/kg, mean of 3 animals
[8] = male, ICR, mouse, plasma, iv, 2 mg/kg, ICR mice, IV 2 mg/kg, mean of 3 animals, read-out: AUC(0-t)
[9] = male, ICR, mouse, plasma, iv, 2 mg/kg, ICR mice, IV 2 mg/kg, mean of 3 animals, read-out: Cmax
[10] = male, ICR, mouse, plasma, iv, 2 mg/kg, ICR mice, IV 2 mg/kg, mean of 3 animals, read-out: Tmax
[11] = male, ICR, mouse, plasma, iv, 2 mg/kg, ICR mice, IV 2 mg/kg, mean of 3 animals, read-out: t1/2 (converted)
[12] = male, ICR, mouse, plasma, po, 5 mg/kg, ICR mice, PO 5 mg/kg, individual animal
[13] = male, ICR, mouse, plasma, po, 5 mg/kg, ICR mice, PO 5 mg/kg, individual animal, read-out: Tmax
[14] = male, ICR, mouse, plasma, po, 5 mg/kg, ICR mice, PO 5 mg/kg, mean of 3 animals
[15] = male, ICR, mouse, plasma, po, 5 mg/kg, ICR mice, PO 5 mg/kg, mean of 3 animals, read-out: AUC(0-t)
[16] = male, ICR, mouse, plasma, po, 5 mg/kg, ICR mice, PO 5 mg/kg, mean of 3 animals, read-out: Cmax
[17] = male, ICR, mouse, plasma, po, 5 mg/kg, ICR mice, PO 5 mg/kg, mean of 3 animals, read-out: Tmax
[18] = male, ICR, mouse, plasma, po, 5 mg/kg, ICR mice, PO 5 mg/kg, mean of 3 animals, read-out: t1/2 (converted)
[19] = male, ICR, mouse, plasma, po, 5 mg/kg, oral intragastric administration 5 mg/kg, read-out: AUC0-t
[20] = male, ICR, mouse, plasma, po, 5 mg/kg, oral intragastric administration 5 mg/kg, read-out: half-life (converted)
[21] = male, mouse, plasma, ICR mice, PO 5 mg/kg vs IV 2 mg/kg, from mean values, read-out: F* (bioavailability)

T1 sequence (Q00987 whole entry): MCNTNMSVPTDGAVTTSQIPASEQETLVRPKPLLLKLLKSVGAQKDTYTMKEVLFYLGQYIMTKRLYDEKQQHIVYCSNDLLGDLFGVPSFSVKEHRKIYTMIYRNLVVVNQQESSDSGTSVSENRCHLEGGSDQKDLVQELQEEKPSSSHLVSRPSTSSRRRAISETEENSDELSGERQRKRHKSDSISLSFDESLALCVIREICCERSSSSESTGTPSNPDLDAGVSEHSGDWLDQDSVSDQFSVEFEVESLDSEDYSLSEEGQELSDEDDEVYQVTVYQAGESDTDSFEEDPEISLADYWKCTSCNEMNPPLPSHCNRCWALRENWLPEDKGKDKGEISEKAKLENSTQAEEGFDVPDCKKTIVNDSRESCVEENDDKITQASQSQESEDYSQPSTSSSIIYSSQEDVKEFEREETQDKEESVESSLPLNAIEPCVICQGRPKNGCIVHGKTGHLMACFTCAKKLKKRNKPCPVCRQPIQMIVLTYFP

CCOc1cc(OC)c(-c2nc3c(n2C(C)C)[C@@]2(C(=O)Nc4cc(Cl)ccc42)N(c2cc(Cl)ccc2C)C3=O)cn1 [Example S-72, (S)-6-chloro-5′-(5-chloro-2-methylphenyl)-2′-(6-ethoxy-4-methoxypyridin-3-yl)-3′-isopropyl-3′H-spiro[dihydroindole-3,4′-pyrrolo[3,4-d]imidazole]-2,6′(5′H)-dione]
IC50 (MDM2): 0.9 nM | AUC(0-t) [1, 3]: 11802.83 ng·h/mL and 14847.37 ng·h/mL | AUC(0-∞) [1, 3]: 12174.58 ng·h/mL and 17305.95 ng·h/mL | CL [1, 3]: 2.74 mL/min/kg and 1.93 mL/min/kg | Cmax [1, 3]: 4839.23 ng/mL and 3686.88 ng/mL | MRT(0-t) [1, 3]: 1.52 h and 1.96 h | MRT(0-∞) [1, 3]: 1.71 h and 2.98 h | Tmax [1, 3]: 0.08 h and 1.00 h | Vz [1, 3]: 0.29 L/kg and 0.36 L/kg | t1/2 [1, 3]: 1.23 h and 2.16 h | AUC(0-t) [1, 4]: 51286.19 ng·h/mL and 23996.12 ng·h/mL and 26941.23 ng·h/mL | AUC(0-∞) [1, 4]: 51351.03 ng·h/mL and 24161.28 ng·h/mL and 27586.31 ng·h/mL | Cmax [1, 4]: 7160.86 ng/mL and 6289.71 ng/mL | MRT(0-t) [1, 4]: 2.18 h and 2.66 h | MRT(0-∞) [1, 4]: 2.23 h and 2.84 h | Tmax [1, 4]: 1.00 h | t1/2 [1, 4]: 2.54 h and 1.13 h and 1.47 h | AUC(0-inf) [1, 5]: 11900 ng·h/mL | clearance [1, 5]: 2.8 mL/min/kg | AUC(0-t) ([1]; male, ICR, mouse, plasma, iv, 2 mg/kg, ICR mice, IV 2 mg/kg, individual animal, read-out: AUC(0-t)): 11500 ng·h/mL | Cmax [1, 6]: 4630 ng/mL | MRT last [1, 5]: 1.53 h | MRT inf [1, 5]: 1.78 h | Vd [1, 5]: 0.34 L/kg | half-life ([1]; male, ICR, mouse, plasma, iv, 2 mg/kg, ICR mice, IV 2 mg/kg, individual animal, read-out: t1/2 (converted)): 1.39 h | AUC(0-inf) [1, 7]: 13800 ng·h/mL | clearance [1, 7]: 2.49 mL/min/kg | AUC(0-t) [1, 8]: 12700 ng·h/mL | Cmax [1, 9]: 4390 ng/mL | MRT last [1, 7]: 1.67 h | MRT inf [1, 7]: 2.16 h | Tmax [1, 10]: 0.389 h | Vd [1, 7]: 0.33 L/kg | half-life [1, 11]: 1.59 h | Cmax ([1]; male, ICR, mouse, plasma, po, 5 mg/kg, ICR mice, PO 5 mg/kg, individual animal, read-out: Cmax): 7870 ng/mL | MRT last [1, 12]: 3.95 h | MRT inf [1, 12]: 3.98 h | Tmax [1, 13]: 0.5 h | AUC(0-inf) [1, 14]: 34400 ng·h/mL | AUC(0-t) [1, 15]: 34100 ng·h/mL | Cmax [1, 16]: 7110 ng/mL | MRT last [1, 14]: 2.93 h | MRT inf [1, 14]: 3.01 h | Tmax [1, 17]: 0.67 h | half-life [1, 18]: 1.72 h | AUC(0-t) [1, 19]: 34100 ng·h/mL | half-life [1, 20]: 1.72 h | bioavailability ([1]; male, ICR, mouse, plasma, oral intragastric administration 5 mg/kg, read-out: bioavailability): 107% | bioavailability [1, 21]: 107% | IC50 [2]: 5.9 nM

CCOc1cc(OC)c(-c2nc3c(n2C(C)C)[C@@]2(C(=O)Nc4cc(Cl)ccc42)N(c2cc(Cl)cnc2C)C3=O)cn1 [Example S-96, (S)-6-chloro-5′-(5-chloro-2-methylpyridin-3-yl)-2′-(6-ethoxy-4-methoxypyridin-3-yl)-3′-isopropyl-3′H-spiro[dihydroindole-3,4′-pyrrolo[3,4-d]imidazole]-2,6′(5′H)-dione]
IC50 (MDM2): 1.04 nM | AUC(0-t) [1, 3]: 3109.78 ng·h/mL and 3206.41 ng·h/mL and 6719.85 ng·h/mL | AUC(0-∞) [1, 3]: 3157.25 ng·h/mL and 3250.65 ng·h/mL and 6815.93 ng·h/mL | CL [1, 3]: 10.56 mL/min/kg and 10.25 mL/min/kg and 4.89 mL/min/kg | Cmax [1, 3]: 3353.43 ng/mL and 3438.41 ng/mL | MRT(0-t) [1, 3]: 0.90 h and 2.62 h | MRT(0-∞) [1, 3]: 1.00 h and 0.99 h and 2.99 h | Vz [1, 3]: 0.95 L/kg and 1.42 L/kg | t1/2 [1, 3]: 0.93 h and 1.07 h and 3.36 h | AUC(0-t) [1, 4]: 6327.28 ng·h/mL and 6993.90 ng·h/mL and 13010.63 ng·h/mL | AUC(0-∞) [1, 4]: 6705.00 ng·h/mL and 7471.54 ng·h/mL and 15115.19 ng·h/mL | Cmax [1, 4]: 3921.65 ng/mL and 2400.19 ng/mL and 5236.64 ng/mL | MRT(0-t) [1, 4]: 2.42 h and 2.30 h | MRT(0-∞) [1, 4]: 2.97 h and 3.61 h | Tmax [1, 4]: 0.50 h | t1/2 [1, 4]: 2.06 h and 2.58 h | Cmax [1, 6]: 2980 ng/mL | Tmax ([1]; male, ICR, mouse, plasma, iv, 2 mg/kg, ICR mice, IV 2 mg/kg, individual animal, read-out: Tmax): 0.08 h | Vd [1, 5]: 0.85 L/kg | AUC(0-inf) [1, 7]: 4410 ng·h/mL | clearance [1, 7]: 8.57 mL/min/kg | AUC(0-t) [1, 8]: 4350 ng·h/mL | Cmax [1, 9]: 3260 ng/mL | MRT last [1, 7]: 1.47 h | MRT inf [1, 7]: 1.66 h | Tmax [1, 10]: 0.083 h | Vd [1, 7]: 1.07 L/kg | half-life [1, 11]: 1.79 h | MRT last [1, 12]: 1.66 h | MRT inf [1, 12]: 2.15 h | Tmax [1, 13]: 0.25 h | half-life ([1]; male, ICR, mouse, plasma, po, 5 mg/kg, ICR mice, PO 5 mg/kg, individual animal, read-out: t1/2 (converted)): 1.69 h | AUC(0-inf) [1, 14]: 9760 ng·h/mL | AUC(0-t) [1, 15]: 8780 ng·h/mL | Cmax [1, 16]: 3850 ng/mL | MRT last [1, 14]: 2.13 h | MRT inf [1, 14]: 2.91 h | Tmax [1, 17]: 0.42 h | half-life [1, 18]: 2.11 h | AUC(0-t) [1, 19]: 8780 ng·h/mL | half-life [1, 20]: 2.11 h | bioavailability [1, 21]: 80.8% | IC50 [2]: 25.3 nM
